Test results reported in PubChem BioAssay (NCI).
Values joined by “and” are separate entries in the source; they are usually repeats but may differ in a detail not shown here. Equal values may be shown once.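 Five compound concentrations were applied to cells in 96-well plates for 48 hours; endpoints were derived by simple linear interpolation of the resulting dose-response curve. GI50 marks 50% less growth. TGI marks complete inhibition of growth.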

How the values were obtained:
Assay in all cases: growth of human tumour cells (NCI), 48 h
[1] = system: 786-0 renal
[2] = system: MALME-3M melanoma
[3] = system: OVCAR-8 ovarian
[4] = system: NCI-H522 lung
[5] = system: CAKI-1 renal
[6] = system: UACC-257 melanoma
[7] = system: A498 renal
[8] = system: A549 NSCLC
[9] = system: PC-3 prostate
[10] = system: MOLT-4 leukemia

Row | Compound | TGI [1] | TGI [2] | TGI [3] [µM] | TGI [4] [µM] | TGI [5] | TGI [6] [µM] | TGI [7] [µM] | TGI [8] [µM] | TGI [9] | TGI [10] [µM] | GI50 [1] | GI50 [3] | GI50 [4] [nM] | GI50 [5] | GI50 [6] [µM] | GI50 [7] [µM] | GI50 [8] [µM] | GI50 [9] | GI50 [10] | GI50 [2]
1 | CCCn1cnc2c(SCC(=O)O)nc(N)nc21 | > 100 µM | > 100 µM | > 100 | > 100 | > 100 µM | > 100 | > 100 | > 100 | > 100 µM | – | – | – | – | – | – | – | – | – | – | –
2 | Cc1cc(Cl)ccc1OCC(=O)Nc1nc(N)nc(N)n1 | > 100 µM | > 100 µM | > 100 | > 100 | > 100 µM | > 100 | > 100 | > 100 | > 100 µM | > 100 | – | – | – | – | – | – | – | – | – | –
3 | CCc1ccccc1NC(=O)/C=C/c1ccccc1 | > 100 µM | > 100 µM | > 100 | > 100 | > 100 µM | > 100 | > 100 | > 100 | > 100 µM | > 100 | – | – | – | – | – | – | – | – | – | –
4 | COc1ccc(C(=O)c2cc3c(N)c(C(=O)Nc4ccccc4)sc3nc2C)cc1 | > 100 µM | – | > 100 | > 100 | > 100 µM | > 100 | 0.645 | > 100 | > 100 µM | > 100 | 4.73 µM | 3.71 µM | 1890 | 656 nM | 47.1 | 0.184 | 0.638 | 2.77 µM | 0.796 µM | –
5 | CN(C)c1nc(=NCc2ccco2)ss1 | 16.9 µM | 54 µM | 62.4 | 3.11 | 49.1 µM | > 79.4 | > 100 | > 76.7 | 30.5 µM | 44.8 | – | – | – | – | – | – | – | – | – | –
6 | CCOc1ccc2c(c1)C(=O)c1c-2n(CCCBr)c(=O)c2cc([N+](=O)[O-])ccc12 | > 100 µM | > 100 µM | > 100 | 72.8 | > 100 µM | 98.3 | > 100 | > 100 | > 100 µM | > 100 | 13.6 µM | 4.8 µM | 5740 | 8150 nM | 40.9 | 36 | 29 | > 100 µM | 4.18 µM | 40700 nM
7 | CCCCCCCC(=O)OCCCC1[C@]2(C)CC[C@@]3(C)C([C@H](C)CCC=C(C)C)CC[C@]3(C)C2CC[C@]12OC2(C)C (stereo partly drawn) | > 100 µM | > 100 µM | > 100 | > 100 | 48.9 µM | > 100 | > 100 | > 100 | > 100 µM | 57.1 | > 100 µM | 64 µM | 35100 | 23800 nM | 68.2 | > 100 | 32.4 | 30.2 µM | 22.1 µM | > 100000 nM
8 | C1=C/COCc2cc(ccc2OCCN2CCCC2)Nc2nccc(n2)-c2ccc(o2)COC/1 | 13 µM | 3.69 µM | 18.8 | 6.13 | 3.28 µM | 3.43 | 3.57 | 12 | 21.4 µM | 5.57 | 2.71 µM | 2.59 µM | 1840 | 460 nM | 1.52 | 1.52 | 2.23 | 1.17 µM | 1.63 µM | 1400 nM
9 | Cc1ccc2nc(-c3ccc(OCC(=O)N=Nc4c(O)[nH]c5ccccc45)cc3)[nH]c2c1 | 4.38 µM | 4.6 µM | 6.34 | 5.09 | 10.2 µM | > 100 | > 100 | 6.32 | 3.65 µM | 8.87 | 2.06 µM | 2.46 µM | 2000 | 2800 nM | 29.8 | > 100 | 2.38 | 1.74 µM | 2.99 µM | 2100 nM
10 | CC(C)c1nc(N(C)S(C)(=O)=O)nc(-c2ccc(F)cc2)c1/C=C/[C@@H](O)C[C@@H](O)CC(=O)O | > 100 µM | > 100 µM | > 100 | > 100 | > 100 µM | > 100 | 20.8 | > 100 | > 100 µM | > 100 | > 100 µM | > 85.4 µM | 21500 | 67700 nM | > 100 | 3.57 | > 100 | 41.7 µM | > 100 µM | > 100000 nM
11 | c1cc(-c2nnc(SSc3ncnc4nc[nH]c34)o2)ccn1 | > 100 µM | > 100 µM | > 100 | > 100 | 5.17 µM | > 100 | > 100 | > 100 | > 100 µM | > 100 | 0.986 µM | 3.26 µM | 1630 | 472 nM | 9.34 | 4.61 | 23 | 3.48 µM | 1.23 µM | 2080 nM
12 | C#CCNC(=S)N/N=C(\C)c1ccccn1 | > 100 µM | > 100 µM | > 100 | > 100 | > 33.8 µM | 1.49 | 10.1 | > 100 | > 100 µM | – | 0.354 µM | 0.284 µM | 3330 | 396 nM | 0.302 | 1.07 | 1.18 | 0.393 µM | 0.126 µM | 1510 nM
13 | Cn1cccc1-c1cc(-c2ccccc2)[nH]c(=O)c1C#N | > 100 µM | > 100 µM | > 100 | > 100 | > 100 µM | > 100 | > 100 | > 100 | > 100 µM | 45.4 | > 100 µM | > 100 µM | > 100000 | > 100000 nM | > 100 | 25.6 | > 100 | > 100 µM | 18.9 µM | > 100000 nM
14 | O=c1cc(-c2ccc(O)cc2)oc2cc(O[C@@H]3O[C@H](CO)[C@@H](O)[C@H](O)[C@H]3O)cc(O)c12 | > 100 µM | – | > 100 | > 100 | 0.718 µM | > 100 | > 100 | > 100 | > 100 µM | > 100 | – | – | – | – | – | – | – | – | – | –
15 | CN(Cc1ccc(C(F)(F)F)cc1)CC(O)C(=O)Nc1ccc(Cl)cc1 (stereo not drawn) | 2.84 µM | 2.81 µM | 3.5 | 3.06 | 2.83 µM | 3.38 | 2.79 | 3.16 | 3.21 µM | 3.28 | 1.44 µM | 1.8 µM | 1500 | 1370 nM | 1.81 | 1.38 | 1.69 | 1.77 µM | 1.42 µM | 1370 nM
16 | COC(=O)c1cc2c(cc1Cl)SC1=NN(C)S(=O)N1S2(=O)=O (stereo not drawn) | > 100 µM | > 100 µM | > 100 | > 100 | > 100 µM | > 100 | > 100 | > 100 | > 100 µM | > 100 | > 100 µM | > 100 µM | > 100000 | > 100000 nM | > 100 | 75 | > 100 | > 100 µM | > 100 µM | > 100000 nM
17 | CCN(Cc1cc(F)ccc1F)c1ccc(CO)c(Cl)c1 | 26.9 µM | 27.2 µM | 36.2 | 29 | 5.1 µM | 0.308 | 0.145 | 21.6 | 32.4 µM | 53.8 | 11.8 µM | 13 µM | 12200 | 416 nM | 0.0904 | 0.0298 | 1.54 | 13.4 µM | 18.1 µM | 13300 nM
18 | Oc1c(Cl)cc(Cl)c2ccc(Cn3cc(-c4cc(C(F)(F)F)cc(C(F)(F)F)c4)nn3)nc12 | 4.47 µM | 3.21 µM | 9.94 | 3.55 | 2.53 µM | 2.99 | 10.8 | 31.6 | 10.3 µM | 5.91 | 1.97 µM | 2.79 µM | 1250 | 1160 nM | 1.22 | 2.6 | 15.8 | 2.81 µM | 0.823 µM | 1470 nM
19 | CCC(C)Oc1nc2c(c(=O)n(C)c(=O)n2C)n1C (stereo not drawn) | > 100 µM | > 100 µM | > 100 | – | > 100 µM | > 100 | – | > 100 | > 100 µM | > 100 | > 100 µM | > 100 µM | – | > 100000 nM | > 100 | – | > 100 | > 100 µM | > 100 µM | > 100000 nM
20 | Cc1ncc(C(=O)Nc2ccc(CN3CCN(C)CC3)c(C(F)(F)F)c2)cc1C#Cc1ccc(N)nc1 | 4.3 µM | 0.379 µM | 5.03 | 1.75 | 0.533 µM | 3.25 | 0.294 | 4.41 | 5.89 µM | 7.52 | 0.733 µM | 0.489 µM | 192 | 104 nM | 0.582 | 0.0898 | 0.531 | 0.72 µM | 0.155 µM | 86.8 nM
21 | NC(=O)[C@@H](CC1CC1)[C@@H](CCC(F)(F)F)C(=O)N[C@H]1N=C(c2ccccc2)c2cccc(F)c2NC1=O | 53.9 µM | 32.5 µM | > 100 | > 100 | > 100 µM | > 100 | – | > 100 | > 100 µM | > 100 | 17.8 µM | > 100 µM | > 100000 | > 100000 nM | > 100 | – | > 100 | 69 µM | 18.5 µM | 15400 nM
22 | O=c1c2cc(-c3ccccc3)sc2ncn1Cc1ccc(Cl)c(Cl)c1 | 43.3 µM | – | > 100 | 53.1 | 49.1 µM | > 100 | 50.3 | > 100 | 55.1 µM | 54.9 | 14.2 µM | 18.6 µM | 6430 | 16400 nM | 62.2 | 19.4 | 18 | 19.1 µM | 18.9 µM | –
23 | NS(=O)(=O)c1ccc(N2N=C3c4ccccc4CC3C2c2cccs2)cc1 (stereo not drawn) | 41.7 µM | – | 40.1 | > 100 | 38.2 µM | 73.7 | – | 32.1 | 59.5 µM | > 100 | 17.6 µM | 15.3 µM | 39300 | 19600 nM | 29.7 | – | 13.1 | 22.1 µM | 18.9 µM | –
24 | CNNC(=N\S(=O)(=O)c1cc(C)c(Cl)cc1SCc1ccccc1)/N=C/c1ccc([N+](=O)[O-])s1 | > 100 µM | > 64.2 µM | > 100 | > 100 | > 100 µM | > 100 | – | > 100 | > 100 µM | > 100 | > 100 µM | > 100 µM | > 100000 | > 100000 nM | > 100 | – | 59.2 | > 100 µM | > 100 µM | 1180 nM
25 | O=C(Nc1ccc(F)cc1F)c1cc(Cl)ccc1O | 7.69 µM | 4.76 µM | 13.3 | 10.8 | 5.51 µM | 2.68 | 0.902 | 41 | 41.2 µM | – | 2.71 µM | 2.38 µM | 974 | 1310 nM | 0.397 | 0.257 | 1.29 | 1.88 µM | – | 782 nM
26 | Cc1nc2ccc(Br)cc2c(=O)n1-c1ccc(NC2OCC(O)C(O)C2O)cc1 (stereo not drawn) | 42.2 µM and > 100 µM | 65 µM and > 100 µM | > 100 | – | 44.1 µM and > 100 µM | > 100 | > 100 | > 100 | 86.9 µM and > 100 µM | > 100 | 19.1 µM and > 100 µM | 43.5 µM and > 100 µM | – | 20300 nM and > 100000 nM | > 100 | – | – | 18.5 µM and > 100 µM | 19.6 µM and 71.2 µM | 23200 nM and > 100000 nM
27 | CCN1CCN(c2cc(C)nc(N(CCCNc3ccnc4cc(Cl)ccc34)Cc3ccc4c(c3)OCO4)n2)CC1 | 3.8 µM | 3.5 µM | 14.4 | 4.76 | – | 3.23 | 20.8 | > 100 | > 100 µM | > 100 | 1.81 µM | 3.19 µM | 2030 | – | 1.72 | 3.66 | 3.67 | 3.6 µM | 2.84 µM | 1870 nM
